Measured values published in publication PMC7849011, “Defining the Antimalarial Activity of Cipargamin in Healthy Volunteers Experimentally Infected with Blood-Stage Plasmodium falciparum” (Antimicrobial Agents and Chemotherapy, 2021).
≈ marks a conversion by molar mass, not a printed value. Where “and” joins values, the source holds several entries; their conditions need not be identical. Identical values can stand only once. Entries after “also recorded” stand apart in the source; their conditions may differ. Like-named read-outs stand apart in the source and are kept apart here.

Legend:
[1] = test system: P. falciparum; details: cited from earlier work
[2] = test system: P. vivax; set-up: method as in PMID 25075833; details: 30 mg per day for 3 days, P. vivax malaria patients; cited from earlier work
[3] = cited from earlier work
[4] = test system: P. falciparum gametocytes; assay: Direct membrane feeding assay (DMFA), transmission to Anopheles stephensi mosquitoes; type: in vivo, Plasmodium falciparum; details: blood collected 20 days after cipargamin dosing
Method: The transmission of parasites from subjects to female Anopheles stephensi mosquitoes was measured using a direct membrane feeding assay (DMFA) as previously described ([23]). Briefly, ∼100 mosquitoes (3 to 7 days old) were allowed to feed on a water-jacketed membrane feeder filled with venous blood collected 20 days after cipargamin dosing into lithium heparin anticoagulant tubes. Seven to 9 days after blood feeding, mosquitoes were dissected to detect oocysts in midgut preparations using qPCR targeting the gene encoding 18S rRNA.

[5] = test system: rodent malaria model; set-up: method as in PMID 20813948; details: cited from earlier work
[6] = test system: P. falciparum; assay: Population PK/PD modelling (Emax model) and dose simulation; type: in vivo, Plasmodium falciparum
Method: Data preparation, exploration, model definition, model evaluation and simulations were performed in R (version 3.5.1) and the R package IQRtools (version 1.0.6; IntiQuan, Basel, Switzerland) within the software package MonolixSuite 2018R2 (Lixoft, Antony, France). The MIC and the minimum parasiticidal concentration that achieves 90% of maximum effect (MPC90) were derived from the PK/PD model. Simulations were performed to predict the minimum effective single dose, defined as the dose that clears 10^9 parasites/ml. Further detail on PK/PD modeling methods is presented in Text S1.
Pharmacokinetic/Pharmacodynamic modelling methods and results […]
The objectives of the PK/PD modelling anal ysis w ere:
1. To develop a population PK model of cipar gamin in healthy subjects inoculated with blood stage P. falciparum .
2. To char acterize the PK/PD relationship between cipargamin pharmacokinetics and parasite cl ear ance in h eal th subjects inoculated with blood stage P. falcipar um .
3. To determine the minimum inhibitory concent ration (M IC ) of cipargamin .
4. To establish the minimum effective cipar gamin single dose required to kill 10 9
Data preparation, exploration, model definition, model evaluation and simulations were performed in R (version 3.5.1) and the R package IQRtools (version 1.0.6, IntiQuan GmbH, Basel, Switzerland) withi n the software package MonolixSuite2018R2 (Li xoft, Anton y, Fran ce) which implemen ts stochastic approx imation ex pectation-maximisation (SAEM) algorithm for parameter estimation.
One-, two- and three-compartment with different absorption and elimination models were tested. Zero- and first-order absorption models wi th or without lag time were examined. Data below the lower limit of quantitation ( LLO Q; 0.001 µg/ m L) were treated using a left - censoring method. Between subject vari abilit y ( BSV) of the PK parameters was assumed to be normally distributed on log -scale. The random effects across the par ameters within an individual were modelled according to a multivari ate normal distribution (MVN). BS V w as […]
supported by the data.The residual unexplained variabilit y (RUV) was tested using a proportional or combined error models.
Population PK/PD modelling
A sequential PK/PD modelling approach was used in which the empirical Bayes estimates of individual PK parameters were us ed as r egression parameters for the PK/P D model. The observations below the limit of detection (LOD; 10 parasites/mL) were mo del led using a l eft-censoring method. In this anal ysis, the changes in parasitemia over time in the presen ce of antimalarial dru g are ass umed to be a result of the differen ce b etween p ar asite growth rate (k grow ) and the r ate at wh ich parasites are killed b y the drug (k k ill ) with a baseline parasitemia (P L base ) at time t 0 (time of inoculation). Diff erent structural PK/PD models were tested to assess the relationship of cipar gamin plasma concentration on the parasite ki lling rate. The E max model assumed a direct effect of cipargamin plasma concent rations on parasite killing.
The turnover model assumed an indirect effect of cipargamin plasma concentrations on parasite killing due to lag in the PD processes (i.e. the kinetics of dru g-receptor binding). The effect compartment mod el assumed an indirect ef fect of cipar gamin plasm a concentration on parasite killing due to biophase equilibration. This model can be interpreted as the dela y for the drug to reach the site of action in which the cip ar gamin concentrations i n the eff ect […]
compartment drives the d rug eff ect. The p arasite clear an ce model assumed that the observed parasites were a mixture of living and dead parasites and that the cipar gami n plasma […]
PD parameters wer e mod elled assuming a log-normal distribution with exception of ln-transformed b aseline par asite values (parasit emia at time of inoculation) w here a no rmal distribution was assumed. […]
were fixed to 0.2. […]

[7] = set-up: method as in PMID 25114127; details: cited from earlier work
[8] = 25 P. falciparum patients, single doses of 10, 15, 20 or 30 mg
[9] = P. falciparum patient, day 6, not considered related
[10] = P. vivax patient, day 9, 30 mg per day for 3 days
[11] = plasma concentration, PK/PD model, 10 mg cohort

C[C@H]1Cc2c([nH]c3cc(Cl)c(F)cc23)[C@@]2(N1)C(=O)Nc1ccc(Cl)cc12 [cipargamin]
parasite clearance half-life ([1]; 10 mg single dose, patients with P. falciparum malaria): 4.35 h | parasite clearance half-life ([1]; 30 mg per day for 3 days, P. falciparum malaria patients): 0.90 h | parasite clearance half-life ([1]; 30 mg single dose (highest tested), phase 2a): 1.47 h | clearance of parasitemia in patients ([1]; 3-day regimen of 30 mg daily, patients infected with P. falciparum or Plasmodium vivax, Thailand): demonstrated to clear parasitemia | MIC estimated in patients ([1]; patients with P. falciparum malaria, doses 10, 15, 20 and 30 mg): 0.1 ng/mL (≈ 0.256 nM) | parasite clearance half-life [2]: 0.95 h | AUC0–∞ ([3]; 10 mg, patients with naturally acquired malaria): 6400 ng·h/mL | LFT abnormalities ([3]; 30 mg per day for 3 days, 11 P. falciparum and 10 P. vivax patients): three subjects displayed LFT abnormalities | patients with increased ALT [3, 8]: only one patient displayed increased ALT | patients with increased blood alkaline phosphatase [3, 8]: 40% | subjects with hyperbilirubinemia [3, 8]: 20% | increased ALT [3, 9]: 192 U/liter | increased AST [3, 9]: 121 U/liter | peak ALT [3, 10]: 241 U/liter | peak AST [3, 10]: 106 U/liter | peak ALT ([3]; other P. vivax patient, day 6): 78 U/liter | peak AST ([3]; other P. vivax patient, day 6): 63 U/liter | patients with asymptomatic transient ALT elevations (>3 × ULN) ([3]; single 75-mg dose, cohort of 11 P. falciparum patients, ref unpublished, NCT01860989): four patients had asymptomatic transient ALT elevations | transmission to mosquitoes (oocysts in midgut by qPCR) [4]: did not transmit to mosquitoes; also recorded: could not be detected; also recorded: not observed | cure in rodent malaria model [5]: single-dose cure was demonstrated | PRR48 actual, median (95% CI) ([6]; PK/PD model, 10 mg): 2.59 (1.89 – 3.32) log10 unit | Time above MIC, median (95% CI) ([6]; PK/PD model, 10 mg): 1.96 (1.59 –2.44) days | Time above MPC90, median (95% CI) ([6]; PK/PD model, 10 mg): 0.89 (0.63–1.26) days | Emax, maximum parasite killing rate ([6]; final PK/PD Emax model, Hill coefficient fixed to 5): 0.23 h⁻¹ | MIC, median (95% CI) [6, 11]: 11.6 (9.9 – 13.3) ng/ml and 11.6 ng/ml | MPC90, minimum parasiticidal concentration that achieves 90% of maximum effect, median (95% CI) [6, 11]: 23.5 (19.9 – 27.4) ng/ml and 23.5 ng/ml | minimum effective single dose predicted to clear 10^9 parasites/ml ([6]; simulation in patients with malaria, 500 patients per dose, up to day 28): 95 mg | AUC0–∞ ([7]; 10 mg, healthy subjects, first-in-human study): 1860 ng·h/mL | LFT abnormalities ([7]; 72 healthy subjects, single doses up to 300 mg or up to 150 mg daily for 3 days): only one subject displayed mild LFT abnormalities | tolerability in humans ([7]; single dose up to 300 mg or up to 150 mg daily for 3 days): tolerated
